pIC50: −log10 of the molar value. Values after ≈ are worked out from the molar mass of the structure shown. Where two headings read alike, the source gives them in different places.
Experiments:
E. coli ATCC 25922 = assay: Microbroth dilution MIC (CLSI); type: cell-based; settings: Escherichia coli, ATCC25922; E. coli ATCC 25922; read-out: MIC
Experimental: (§1) The chemical entities described in the present invention were assessed for their antimicrobial activity using a microbroth dilution assay as recommended by the CLSI (Methods for Dilution Antimicrobial Susceptibility Tests for Bacteria That Grow Aerobically, and Methods for Antimicrobial Susceptibility Testing of Anaerobic Bacteria, Clinical and Laboratory Standards Institute, Document M07-A8, and M11-A8, Wayne, PA 19087, USA, 2012.). Compounds were dissolved by using 100% DMSO. Serial two-fold dilutions of each compound were made by using 100% DMSO as the diluent.
(§2) A library of Gram-negative and Gram-positive microbes and their drug- and multidrug-resistant variants were employed as test organisms. The MIC (minimum inhibitory concentration) was determined as the lowest concentration of an individual drug that lead to no visible growth.

[1] = test system: S. aureus ATCC 43300 (MRSA); assay: Microbroth dilution MIC (CLSI); type: cell-based; settings: Staphylococcus aureus
Experimental: as §1, §2

S. aureus ATCC 29213 = assay: Microbroth dilution MIC (CLSI); type: cell-based; settings: Staphylococcus aureus, ATCC29213; S. aureus ATCC 29213; read-out: MIC
Experimental: as §1, §2

K. pneumoniae ATCC 10031 = assay: Microbroth dilution MIC (CLSI); type: cell-based; settings: Klebsiella pneumoniae, ATCC10031; K. pneumoniae ATCC 10031; read-out: MIC
Experimental: as §1, §2

E. faecalis ATCC 29212 = assay: Microbroth dilution MIC (CLSI); type: cell-based; settings: Enterococcus faecalis, ATCC29212; E. faecalis ATCC 29212; read-out: MIC
Experimental: as §1, §2

A. baumannii ATCC 17978 = assay: Microbroth dilution MIC (CLSI); type: cell-based; settings: Acinetobacter baumannii, ATCC17978; A. baumannii ATCC 17978; read-out: MIC
Experimental: as §1, §2

[2] = test system: S. aureus ATCC 700699 (VISA); assay: Microbroth dilution MIC (CLSI); type: cell-based; settings: Staphylococcus aureus
Experimental: as §1, §2

[3] = test system: E. spp. cloacae ATCC 13047; assay: Microbroth dilution MIC (CLSI); type: cell-based; settings: Enterobacter cloacae, ATCC13047; E. spp. cloacae ATCC 13047; read-out: MIC
Experimental: as §1, §2

E. faecium ATCC 700221 = assay: Microbroth dilution MIC (CLSI); type: cell-based; settings: Enterococcus faecium, ATCC700221
Experimental: as §1, §2

P. aeruginosa ATCC 27853 = assay: Microbroth dilution MIC (CLSI); type: cell-based; settings: Pseudomonas aeruginosa, ATCC27853; P. aeruginosa ATCC 27853; read-out: MIC
Experimental: as §1, §2

E. coli DNA gyrase = biological target: T1, E. coli DNA gyrase (Escherichia coli, UniProt P0AES6); assay: biochemical; settings: E. coli DNA gyrase; for pIC50: read-out: IC50
T1 construct: purchased Inspiralis
Experimental: Inhibitory activities for compounds of the present invention were determined on E. coli and S. aureus DNA gyrase and topoisomerase IV in an assay from Inspiralis on streptavidin-coated 96-well microtiter plates from Thermo scientific Pierce. […] After washing off the unbound oligonucleotide, the enzyme test was performed. […] Reaction solutions were incubated at 37° C. for 30 min. After that, the TF buffer (50 mM NaOAc with pH 5.0, 50 mM NaCl and 50 mM MgCl2) was added to terminate the enzymatic reaction. After additional incubation for 30 min at rt, during which biotin-oligonucleotide-plasmid triplex was formed, the unbound plasmid was washed off using TF buffer and SybrGOLD in T10 buffer (10 mM Tris HCl with pH 8.0 and 1 mM EDTA) was added. […] GraphPad Prism 6.0 software was used to calculate the IC50 values. The result is given as the average value of three independent measurements. […] Chemoth.

E. coli topoisomerase IV = biological target: T2, E. coli topoisomerase IV (Escherichia coli, UniProt P20083); assay: biochemical; settings: E. coli topo IV, read-out: RA (residual activity of the enzyme)
T2 construct: purchased Inspiralis
Experimental: Inhibitory activities for compounds of the present invention were determined on E. coli and S. aureus DNA gyrase and topoisomerase IV in an assay from Inspiralis on streptavidin-coated 96-well microtiter plates from Thermo scientific Pierce. […] After washing off the unbound oligonucleotide, the enzyme test was performed. […] Reaction solutions were incubated at 37° C. for 30 min. After that, the TF buffer (50 mM NaOAc with pH 5.0, 50 mM NaCl and 50 mM MgCl2) was added to terminate the enzymatic reaction. After additional incubation for 30 min at rt, during which biotin-oligonucleotide-plasmid triplex was formed, the unbound plasmid was washed off using TF buffer and SybrGOLD in T10 buffer (10 mM Tris HCl with pH 8.0 and 1 mM EDTA) was added. […] Initial screening was done at 100 or 10 nM concentration of inhibitors against E. coli DNA gyrase or 1 μM or 100 nM concentration against S. aureus DNA gyrase and E. coli and S. aureus topo IV. […] GraphPad Prism 6.0 software was used to calculate the IC50 values. The result is given as the average value of three independent measurements. […] Chemoth.

[4] = S. aureus ATCC 43300 (MRSA), read-out: MIC
[5] = S. aureus ATCC 700699 (VISA), read-out: MIC
[6] = E. faecium ATCC 700221, read-out: MIC

T2 sequence (P0AFI2 whole entry): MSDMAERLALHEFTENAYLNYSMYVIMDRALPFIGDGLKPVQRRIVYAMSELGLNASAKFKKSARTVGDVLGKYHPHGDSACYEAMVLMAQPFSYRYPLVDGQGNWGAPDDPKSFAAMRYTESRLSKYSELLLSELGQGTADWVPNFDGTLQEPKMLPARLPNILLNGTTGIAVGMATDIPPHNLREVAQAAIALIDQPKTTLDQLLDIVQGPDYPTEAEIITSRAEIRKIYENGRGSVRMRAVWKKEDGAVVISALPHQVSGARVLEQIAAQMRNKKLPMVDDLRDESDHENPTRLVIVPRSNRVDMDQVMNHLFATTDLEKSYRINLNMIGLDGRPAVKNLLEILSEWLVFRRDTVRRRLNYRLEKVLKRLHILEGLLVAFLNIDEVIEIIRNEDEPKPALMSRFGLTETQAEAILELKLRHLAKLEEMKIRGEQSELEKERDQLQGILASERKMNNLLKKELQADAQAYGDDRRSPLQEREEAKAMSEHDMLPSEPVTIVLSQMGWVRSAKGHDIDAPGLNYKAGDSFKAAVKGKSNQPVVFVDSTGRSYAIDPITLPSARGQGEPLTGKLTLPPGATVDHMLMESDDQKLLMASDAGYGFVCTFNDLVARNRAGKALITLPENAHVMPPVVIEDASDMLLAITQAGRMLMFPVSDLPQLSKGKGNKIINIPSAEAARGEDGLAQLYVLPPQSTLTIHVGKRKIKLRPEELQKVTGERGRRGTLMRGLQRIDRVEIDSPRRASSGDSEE
T2 sequence (P20083 whole entry): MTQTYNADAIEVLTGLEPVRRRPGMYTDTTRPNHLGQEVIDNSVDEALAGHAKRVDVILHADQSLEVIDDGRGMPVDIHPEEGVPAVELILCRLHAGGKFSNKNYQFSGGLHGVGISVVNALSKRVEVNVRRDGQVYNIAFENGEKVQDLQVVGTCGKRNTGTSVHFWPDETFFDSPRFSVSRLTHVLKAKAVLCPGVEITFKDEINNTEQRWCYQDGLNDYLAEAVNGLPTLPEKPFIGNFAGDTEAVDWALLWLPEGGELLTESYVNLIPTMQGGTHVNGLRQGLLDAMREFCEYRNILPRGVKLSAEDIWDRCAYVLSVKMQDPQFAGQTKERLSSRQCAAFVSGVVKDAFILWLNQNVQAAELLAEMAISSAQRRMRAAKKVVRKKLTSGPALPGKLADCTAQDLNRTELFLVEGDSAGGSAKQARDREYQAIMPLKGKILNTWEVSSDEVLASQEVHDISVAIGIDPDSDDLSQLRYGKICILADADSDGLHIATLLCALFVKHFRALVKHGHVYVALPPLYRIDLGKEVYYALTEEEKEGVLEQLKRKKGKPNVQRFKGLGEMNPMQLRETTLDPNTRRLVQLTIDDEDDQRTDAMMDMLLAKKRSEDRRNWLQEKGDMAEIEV

Structure (SMILES) | MIC (E. coli ATCC 25922) [µg/mL] | MIC [1, 4] [µg/mL] | MIC (S. aureus ATCC 29213) [µg/mL] | MIC (K. pneumoniae ATCC 10031) [µg/mL] | MIC (E. faecalis ATCC 29212) [µg/mL] | MIC (A. baumannii ATCC 17978) [µg/mL] | MIC [2, 5] [µg/mL] | MIC [3] [µg/mL] | MIC (E. faecium ATCC 700221; [6]) [µg/mL] | MIC (P. aeruginosa ATCC 27853) [µg/mL] | pIC50 (E. coli DNA gyrase) | remaining activity at 10 µM (E. coli topoisomerase IV; 10 μM compound) [%] | remaining activity at 10 pM (E. coli DNA gyrase; 0.01 nM compound, read-out: RA (residual activity of the enzyme)) [%] | remaining activity at 0.0001 µM (E. coli DNA gyrase; 0.1 nM compound, read-out: RA (residual activity of the enzyme)) [%] | remaining activity at 0.1 µM (E. coli topoisomerase IV; 0.1 μM compound) [%] | remaining activity at 1 µM (E. coli topoisomerase IV; 1 μM compound) [%] | MIC [1] [µg/mL] | MIC [2] [µg/mL] | MIC (E. faecium ATCC 700221) [µg/mL]
Cc1[nH]c(C(=O)Nc2ccc(-n3nn[nH]c3=O)cc2N2CCN(c3ccccc3)CC2)c(Cl)c1Cl [Example 24, 3,4-Dichloro-5-methyl-N-(4-(5-oxo-4,5-dihydro-1H-tetrazol-1-yl)-2-(4-phenylpiperazin-1-yl)phenyl)-1H-pyrrole-2-carboxamide] | ≥ 32 | ≥ 32 | ≥ 32 | ≥ 32 | 0.5 (≈ 0.974 µM) | ≥ 32 | 0.5 (≈ 0.974 µM) | ≥ 32 | 0.5 (≈ 0.974 µM) | ≥ 32 | 8.11 | – | – | – | – | – | – | – | –
Cc1[nH]c(C(=O)Nc2ccc(-c3noc(=O)[nH]3)cc2N2CCN(c3ccccc3)CC2)c(Cl)c1Cl [Example 7, 3,4-Dichloro-5-methyl-N-(4-(5-oxo-4,5-dihydro-1,2,4-oxadiazol-3-yl)-2-(4-phenylpiperazin-1-yl)phenyl)-1H-pyrrole-2-carboxamide] | > 64 | 0.0625 (≈ 0.122 µM) | 4 (≈ 7.79 µM) | > 64 | 0.125 (≈ 0.243 µM) | > 64 | 2 (≈ 3.9 µM) | > 64 | 4 (≈ 7.79 µM) | > 64 | 6.96 | – | – | – | – | – | – | – | –
Cc1[nH]c(C(=O)Nc2ccc(-n3nn[nH]c3=O)cc2N2Cc3ccccc3C2)c(Cl)c1Cl [Example 25, 3,4-Dichloro-N-(2-(isoindolin-2-yl)-4-(5-oxo-4,5-dihydro-1H-tetrazol-1-yl)phenyl)-5-methyl-1H-pyrrole-2-carboxamide] | > 64 | > 64 | 16 (≈ 34 µM) | > 64 | 0.25 (≈ 0.532 µM) | > 64 | > 64 | > 64 | 0.5 (≈ 1.06 µM) | > 64 | – | 105 | 73 | 26 | – | – | – | – | –
Cc1[nH]c(C(=O)Nc2ccc(-c3n[nH]c(=O)o3)cc2OC2CCNC2)c(Cl)c1Cl.Cl (centres unmarked) [Example 26, 3-(2-(3,4-Dichloro-5-methyl-1H-pyrrole-2-carboxamido)-5-(5-oxo-4,5-dihydro-1,3,4-oxadiazol-2-yl)phenoxy)pyrrolidin-1-ium chloride] | ≥ 32 | ≥ 32 | ≥ 32 | ≥ 32 | ≥ 32 | ≥ 32 | ≥ 32 | ≥ 32 | ≥ 32 | ≥ 32 | 8.45 | – | – | – | – | – | – | – | –
Cc1[nH]c(C(=O)Nc2ccc(-c3noc(=O)[nH]3)cc2N2CCC(N)CC2)c(Cl)c1Cl.Cl [Example 1, 1-(2-(3,4-Dichloro-5-methyl-1H-pyrrole-2-carboxamido)-5-(5-oxo-4,5-dihydro-1,2,4-oxadiazol-3-yl)phenyl)piperidin-4-aminium chloride] | ≥ 64 | 32 | 64 | 64 | 32 | ≥ 64 | 16 | ≥ 64 | 32 | ≥ 64 | 9.60 | – | – | – | 105 | 33 | – | – | –
Cc1[nH]c(C(=O)Nc2ccc(-c3n[nH]c(=O)o3)cc2NC2CCNCC2)c(Cl)c1Cl.Cl [Example 19, 4-((2-(3,4-Dichloro-5-methyl-1H-pyrrole-2-carboxamido)-5-(5-oxo-4,5-dihydro-1,3,4-oxadiazol-2-yl)phenyl)amino)piperidin-1-ium chloride] | > 64 | > 64 | > 64 | 2 | > 64 | > 64 | > 64 | > 64 | > 64 | > 64 | 8.36 | – | – | – | – | – | – | – | –
Cc1[nH]c(C(=O)Nc2ccc(-c3noc(=O)[nH]3)cc2N2CCCC2)c(Cl)c1Cl [Example 6, 3,4-Dichloro-5-methyl-N-(4-(5-oxo-4,5-dihydro-1,2,4-oxadiazol-3-yl)-2-(pyrrolidin-1-yl)phenyl)-1H-pyrrole-2-carboxamide] | > 64 | 0.5 (≈ 1.18 µM) | > 64 | > 64 | < 0.0312 | > 64 | < 0.0313 | > 64 | 0.0625 (≈ 0.148 µM) | > 64 | 7.90 | – | – | – | – | – | – | – | –
Cc1[nH]c(C(=O)Nc2ccc(-c3n[nH]c(=O)o3)cc2OCC2CCCNC2)c(Cl)c1Cl.Cl (centres unmarked) [Example 28, 3-((2-(3,4-Dichloro-5-methyl-1H-pyrrole-2-carboxamido)-5-(5-oxo-4,5-dihydro-1,3,4-oxadiazol-2-yl)phenoxy)methyl)piperidin-1-ium chloride] | > 64 | > 64 | > 64 | 0.5 | > 64 | > 64 | > 64 | > 64 | > 64 | > 64 | 9.12 | – | – | – | – | – | – | – | –
Cc1[nH]c(C(=O)Nc2ccc(-c3noc(=O)[nH]3)cc2N2CCNCC2)c(Cl)c1Cl [Example 5, 4-(2-(3,4-Dichloro-5-methyl-1H-pyrrole-2-carboxamido)-5-(5-oxo-4,5-dihydro-1,2,4-oxadiazol-3-yl)phenyl)piperazin-1-ium chloride] | > 64 | – | > 64 | > 64 | > 64 | > 64 | – | > 64 | – | > 64 | 8.22 | – | – | – | – | – | > 64 | > 64 | > 64
Cc1[nH]c(C(=O)Nc2ccc(-c3n[nH]c(=O)o3)cc2OC2CCNCC2)c(Cl)c1Cl.Cl [Example 27, 4-(2-(3,4-Dichloro-5-methyl-1H-pyrrole-2-carboxamido)-5-(5-oxo-4,5-dihydro-1,3,4-oxadiazol-2-yl)phenoxy)piperidin-1-ium chloride] | ≥ 32 | 8 | 16 | 0.125 | > 64 | ≥ 32 | ≥ 64 | ≥ 32 | 8 | ≥ 32 | 8.65 | – | – | – | – | – | – | – | –
Cc1[nH]c(C(=O)Nc2ccc(C(=O)O)cc2NC2CCNCC2)c(Cl)c1Cl.Cl [Example 15, 4-((5-Carboxy-2-(3,4-dichloro-5-methyl-1H-pyrrole-2-carboxamido)phenyl)amino)piperidin-1-ium chloride] | > 64 | > 64 | > 64 | > 64 | > 64 | > 64 | > 64 | > 64 | > 64 | > 64 | 6.27 | – | – | – | – | – | – | – | –

— patent US20250002455A1, “NEW N-PHENYLPYRROLAMIDE INHIBITORS OF DNA GYRASE AND TOPOISOMERASE IV WITH ANTIBACTERIAL ACTIVITY” (priority 2020, published 2025)
